Key:
[1] = test system: NCI-H1876 (Small Cell Lung Carcinoma); assay: combination Emax (second highest fraction inhibited in the dose matrix, 72 h); higher = more inhibition; extreme values may be limits of the assay
Procedure, shortened: (§1)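 Cell lines in DMEM/F12 or RPMI with 10% FBS were plated in 1536-well plates, held 24 hours at 37°C, 5% CO2, then given two-drug dose matrices for 72 hours (DMSO typically 0.2%). Viability was read by CellTiter-Glo 2.0 luminescence and scaled as inhibition from 0 (vehicle wells) to 1 (blank wells). Combination Emax is the second-highest inhibition in the matrix; Bliss excess is observed combination effect minus expected EA + EB − EA·EB, EA and EB being single-agent effects.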

[2] = test system: NCI-H596 (Other Solid Carcinomas); assay: as above
Procedure, shortened: as §1

Q: What does the source list for `CS(=O)(=O)CCNCc1ccc(-c2ccc3ncnc(Nc4ccc(OCc5cccc(F)c5)c(Cl)c4)c3c2)o1` [Lapatinib] + NC1(c2ccc(-c3nc4ccn5c(=O)[nH]nc5c4cc3-c3ccccc3)cc2)CCC1 [MK-2206] (first compound max 10 µM, 7x7, partner max 10 µM)?
A: combination Emax [1]: 0.948; combination Emax [2]: 0.822

— the supplement of paper PMC11061612
